From publication PMC6954722 (Stem Cells Translational Medicine, 2019)

Biological target: Smoothened (Mus musculus, UniProt P56726)
Assay: displacement of BODIPY-cyclopamine
Format: cell-based

Chain of Smoothened (P56726 33-793): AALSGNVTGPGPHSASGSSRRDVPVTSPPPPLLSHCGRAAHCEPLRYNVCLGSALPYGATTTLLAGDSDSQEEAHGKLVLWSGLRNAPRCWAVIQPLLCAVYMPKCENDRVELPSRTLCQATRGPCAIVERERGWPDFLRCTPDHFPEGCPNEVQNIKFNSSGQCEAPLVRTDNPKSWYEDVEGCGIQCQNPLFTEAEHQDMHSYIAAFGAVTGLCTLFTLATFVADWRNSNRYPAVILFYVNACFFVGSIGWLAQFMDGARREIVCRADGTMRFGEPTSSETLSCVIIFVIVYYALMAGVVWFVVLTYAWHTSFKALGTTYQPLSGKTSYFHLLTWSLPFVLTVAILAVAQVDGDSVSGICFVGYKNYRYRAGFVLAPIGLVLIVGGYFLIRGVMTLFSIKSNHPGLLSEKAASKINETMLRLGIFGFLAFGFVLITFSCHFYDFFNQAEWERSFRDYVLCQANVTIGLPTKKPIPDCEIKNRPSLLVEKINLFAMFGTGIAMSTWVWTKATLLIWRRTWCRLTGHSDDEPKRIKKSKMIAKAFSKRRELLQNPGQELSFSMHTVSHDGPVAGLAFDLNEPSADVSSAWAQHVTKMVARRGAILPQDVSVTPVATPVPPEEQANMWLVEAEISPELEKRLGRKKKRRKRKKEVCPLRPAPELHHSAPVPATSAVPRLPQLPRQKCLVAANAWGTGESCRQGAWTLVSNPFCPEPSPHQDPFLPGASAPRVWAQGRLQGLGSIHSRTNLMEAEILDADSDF

IC50: 88 ± 3.7 µM
Compound: O=[N+]([O-])c1ccc(S(=O)(=O)N2CCN(c3ccccc3)CC2)cc1 [compound #5, 1‐[(4‐nitrophenyl)sulfonyl]‐4‐phenylpiperazine]
